Measurements published in the NIST ThermoML archive (doi:10.1021/je7001418).
Numbers after ± are expanded uncertainties.

Test: cn = amount concentration of the nth substance listed, in mol/dm3
Conditions: 298.15 K, 101.3 kPa, Liquid; for viscosity: Capillary tube (Ostwald / Ubbelohde) method; for mass density: Pycnometric method

C[N+](C)(C)C.[I-] [tetramethylammonium iodide] + O
Conditions | mass density [kg/m3] | viscosity [mPa·s]
c1 = 0.05 | 1001 ± 1 | 0.805 ± 0.008
c1 = 0.1 | 1003 ± 1 | 0.812 ± 0.008
c1 = 0.15 | 1009 ± 1 | 0.819 ± 0.008
